Results on two compounds are retold here after PubChem BioAssay AID651986 (The Scripps Research Institute Molecular Screening Center, 2013).

Structures are written as SMILES. Active and inactive are the calls of the source. No rule for the calls is given here.

Common to all, as to assay: in situ LYPLA1 and LYPLA2 inhibition, late-stage follow-up, gel-based ABPP, fluorescence, HEK293T, murine T cells (AID 651986)
Assay [1] has as its target Acyl-protein thioesterase 1 (Homo sapiens) (UniProt O75608). Conditions: HEK293T or murine T cells, NHU5 gel-based ABPP, LYPLA1 HEK293T cells, at 5 µM, active compounds read high.
Assay [2] has as its target Acyl-protein thioesterase 2 (Homo sapiens) (UniProt O95372). The settings on record: HEK293T or murine T cells, NHU5 gel-based ABPP, LYPLA2 HEK293T cells, at 5 µM, active compounds read high.
Assay [3] concerns LYPLA1 murine T cells. The settings on record: HEK293T or murine T cells, NHU5 gel-based ABPP, at 5 µM, active compounds read high.
For assay [4], the system named is LYPLA2 murine T cells. Conditions: HEK293T or murine T cells, NHU5 gel-based ABPP, at 5 µM, active compounds read high.

Chain of Acyl-protein thioesterase 1 (Homo sapiens) (O75608 whole entry, looked up): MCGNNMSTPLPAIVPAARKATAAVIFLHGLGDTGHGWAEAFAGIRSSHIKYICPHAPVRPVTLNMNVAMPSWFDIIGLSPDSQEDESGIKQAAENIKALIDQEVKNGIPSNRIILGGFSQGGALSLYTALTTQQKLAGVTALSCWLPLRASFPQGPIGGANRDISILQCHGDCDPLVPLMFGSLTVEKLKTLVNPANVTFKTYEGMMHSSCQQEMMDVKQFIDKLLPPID
Chain of Acyl-protein thioesterase 2 (Homo sapiens) (O95372 whole entry, looked up): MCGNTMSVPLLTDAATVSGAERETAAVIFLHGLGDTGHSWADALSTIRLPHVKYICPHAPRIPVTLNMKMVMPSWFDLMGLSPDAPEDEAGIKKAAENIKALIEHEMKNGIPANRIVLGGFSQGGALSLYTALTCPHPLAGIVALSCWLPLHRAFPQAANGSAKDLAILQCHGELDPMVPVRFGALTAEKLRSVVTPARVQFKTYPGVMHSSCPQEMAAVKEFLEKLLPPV

In the case of `O=C(CN1CCN(C(=O)c2ccco2)CC1)Nc1cc(C(F)(F)F)ccc1Cl`, the inhibition is 100% in assay [1], 0% (inactive) in assay [2], 100% in assay [3] and 0% (inactive) in assay [4].

Consider `COc1ccc(N2CCN(C(=O)c3cc4c(s3)-c3ccccc3S(=O)(=O)C4)CC2)cc1`, for which the inhibition was 0% (inactive) in assay [1], 100% in assay [2], 0% (inactive) in assay [3] and 100% in assay [4].
